# Target: T1, OASS (O-acetylserine sulfhydrylase) (Arabidopsis thaliana, UniProt P47998)
# Test: biochemical
# Conditions: not given
# T1 sequence (P47998 whole entry): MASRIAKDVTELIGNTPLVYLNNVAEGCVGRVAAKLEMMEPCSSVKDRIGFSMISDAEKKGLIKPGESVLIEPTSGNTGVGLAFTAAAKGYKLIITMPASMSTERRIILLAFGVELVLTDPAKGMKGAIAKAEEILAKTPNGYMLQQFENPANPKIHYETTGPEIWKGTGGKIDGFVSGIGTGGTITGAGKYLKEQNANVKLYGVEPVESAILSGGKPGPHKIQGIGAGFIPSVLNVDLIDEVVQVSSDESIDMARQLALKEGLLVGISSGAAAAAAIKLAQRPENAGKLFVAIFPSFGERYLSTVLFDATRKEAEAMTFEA
row,Structure (SMILES),IC50 [µM]
1,"COc1ccc(-c2nc(NC(=O)c3ccccc3-c3ccccc3C(=O)O)sc2C)cc1 [compound 33, 33]",6.7
2,"O=C(Nc1cccc(NC(=O)c2ccccc2-c2ccccc2C(=O)O)c1)c1nccs1 [compound 11, 11]",10.1
3,Nc1cc(F)ccc1-c1csc(NC(=O)c2ccccc2-c2ccccc2C(=O)O)n1 [compound 17],2.7

# Other lines, results leading:
row,IC50 [µM],Structure (SMILES)
1,4.8,CC(C)Cc1ccc(-c2csc(NC(=O)c3ccccc3-c3ccccc3C(=O)O)n2)cc1 [PJ14]
2,2,NCCc1ccc(-c2csc(NC(=O)c3ccccc3-c3ccccc3C(=O)O)n2)cc1 [PJ13]

# Same assay, conditions: read-out: FP IC50; inhibitor
row,Structure (SMILES),IC50 [µM]
1,O=C(O)c1ccccc1-c1cccnc1C(=O)Nc1nc(-c2ccc(Cl)cc2Cl)cs1 [compound 18],12.2
2,O=C(O)c1ccccc1-c1ccccc1C(=O)Nc1cccc(-c2nc3ccccc3[nH]2)c1 [PJ8],4.1

# Target: T1, OASS (O-acetylserine sulfhydrylase)
# Test: fluorescence polarization competition
# Type: binding
# Conditions: not given
row,Structure (SMILES),IC50 [µM]
1,COc1ccc(-c2cc(NC(=O)c3ccccc3-c3ccccc3C(=O)O)n(CCO)n2)cc1 [PJ34],50
2,CC(C)Cc1ccc(-c2csc(NC(=O)c3ccccc3-c3ccccc3C(=O)O)n2)cc1 [PJ14],5.4
3,O=C(O)c1ccccc1-c1ccccc1C(=O)Nc1nc(-c2ccc(Cl)cc2Cl)cs1 [PJ15],4.7
